Experimental data: PMC12867150, “A fungi-derived cyclic peptide enhances Th9-mediated antitumor immunity by targeting ZAP70 and SREBP1” (The Journal of Clinical Investigation, 2025)
Several values for one entry are separate records, joined by “and”; a condition that tells them apart may be missing. Equal values may be shown once.

Columns and labels:
[1] = system: transferred CD45.1+ Th9 cells; assay: Cytokines and granzyme B/perforin in transferred CD45.1+ Th9 cells (Figure 3G, S4A-C); type: in vivo, mouse; design: IFN-γ expression / TNF-α expression / Expression of IFN-γ of transferred CD45.1⁺ OT-II Th9 cells in tumors / Expression of TNF-α of transferred CD45.1⁺ OT-II Th9 cells in tumors: unit not given here; settings: for Expression of GzmB+Perforin+ of transferred CD45.1⁺ OT-II Th9 cells in tumor: Supplemental Figure 4C; for Expression of IFN-γ of transferred CD45.1⁺ OT-II Th9 cells in tumors: Supplemental Figure 4A; for Expression of TNF-α of transferred CD45.1⁺ OT-II Th9 cells in tumors: Supplemental Figure 4B
Experimental: (§1) C57BL/6 mice were subcutaneously injected with 5 × 10^5 B16-OVA melanoma cells. Five days after tumor implantation, mice received an intravenous infusion of 2 × 10^6 in vitro–differentiated Th9 cells (cultured for 5 days), which were derived from OT-II CD45.1 donor mice, accompanied by 4 × 10^5 OVA peptide–pulsed DCs via the tail vein. To enhance T cell engraftment and facilitate lymphodepletion, a single intraperitoneal injection of cyclophosphamide (200 mg/kg, Sigma, catalog C0768) was administered 1 day prior to T cell transfer. Mice were euthanized at designated time points for the collection and analysis of spleens, tumor-draining lymph nodes, and tumor tissues.
(§2) Details regarding staining panels (human and mouse), reagents (including clones and catalog numbers), acquisition settings, compensation/controls, and analysis procedures are provided in Supplemental Methods.
(§3) BioLegend, Cat. No. 422301 or Mouse TruStain FcX™, BioLegend, Cat. No. 101319) for 10 minutes at 4°C. For surface marker detection, cells were stained with fluorochrome-conjugated monoclonal antibodies in 96-well V-bottom plates and incubated on ice for 30 minutes. After staining, cells were washed twice and resuspended in FACS buffer for analysis.
(§4) Prior to intracellular cytokine staining, cells were restimulated for 4 hours with PMA (Absin, Cat. No. abs9107), ionomycin (Sigma-Aldrich, Cat. No. I0634), and brefeldin A (MedChemExpress, Cat. No. HY-16592). For intracellular cytokine staining, cells were first surface-stained as described above, then fixed and permeabilized using the BD Cytofix/Cytoperm™ kit (BD Biosciences, Cat. No. 554714) according to the manufacturer ’s protocol. Intracellular proteins were stained with directly conjugated antibodies targeting IL-9, IL-17a, IL-4, IFN-γ, TNF-α, FOXP3, p-ZAP70, Perforin, and […]
(§5) Antibodies used for mouse samples included those against IL-9 (PE, clone RM9A4, Biolegend, Cat. No. 514104), IFN-γ (PE, clone XMG1.2, Biolegend, Cat. No.
(§6) Cat. No. 103138), CD4 (APC/Cy7, clone E-AB-F1353UJ, Elabscience, Cat. No.
(§7) AF18028), CD8α (PerCP/Cy5.5, clone E-AB-F1104UJ, Elabscience, Cat. No. […]
(§8) clone E-AB-F1187UH, Elabscience, Cat. No. AF19854), TNF-α (BV421, clone MP6-XT22, Biolegend, Cat. No. 506328), FOXP3 (PE, clone FJK-16s, eBioscience, Cat. No.
Perforin (APC, clone S16009A, Biolegend, Cat. No. 154303) and Granzyme B (APC, clone QA16A02, Biolegend, Cat. No. 372203). For human samples, antibodies against CD4 (PerCP/Cy5.5, clone RPA-T4, Biolegend, Cat. No. 300530; APC/Cy7, clone OKT4, Biolegend, Cat. No. 317418), CD19 (APC/Cy7, clone SJ25C1, Biolegend, Cat.
No. 363009), IFN-γ (PE, clone 4S.B3, Biolegend, Cat. No. 502509), IL-9 (PE, clone

[2] = system: EpA-binding proteins in Th9 cell lysates; assay: EpA-biotin pulldown and LC-MS/MS (Figure 5A, S7A-B); design: species or system mouse; settings: result in words
Experimental: Cell lysates from Th9 cells were incubated overnight at 4 °C with EpA-biotin or biotin alone (control). Streptavidin-conjugated magnetic beads were added to capture biotinylated compounds and their interacting proteins. After washing, the bead-bound proteins were resolved by SDS-PAGE and visualized by silver staining. Distinct protein bands were excised, subjected to in-gel enzymatic digestion, and analyzed via liquid chromatography–tandem mass spectrometry (LC-MS/MS) to identify putative EpA-binding proteins.

endogenous CD4+ T cells = assay: Flow cytometry of endogenous CD4+ T cells in spleen, LN, tumor (Figure 2D-E, S1F-H); type: in vivo, mouse; settings: for Frequencies of endogenous CD4⁺ T cells in LN: Supplemental Figure 1G left; for Number of endogenous CD4⁺ T cells in LN: Supplemental Figure 1G right; for CD4 gate number: representative flow plot; for endogenous CD4 T cells (%) / number of endogenous CD4 T cells: individual mice, n = 4
Experimental: as §1, §2, §3, §4, §5, §6, §7, §8
Perforin (APC, clone S16009A, Biolegend, Cat. No. 154303) and Granzyme B (APC, […]
clone QA16A02, Biolegend, Cat. No. 372203). […]
Figure S1. EpA enhances immune responses. […]
I) Representative flow-cytometric plots of endogenous CD4⁺ and CD8⁺ T cells in spleens (F), LNs (G), and tumors (H); frequencies and absolute numbers of endogenous CD4⁺ (G) and CD8⁺ (I) T cells in LNs are quantified. (J and K) […]
Statistical analysis was performed using two-way ANOVA with Tukey’s post hoc test (A), one-way ANOVA with Tukey’s post hoc test (B) or two-tailed unpaired Student’s t-test (D and G–M). ns, not significant. *p < 0.05, **p < 0.01, ****p < 0.0001.
(also on this page, place not known: Mouse weight (g) CtrlEpA CtrlEpA CtrlEpA0 I CD45.1+ T cells (%) CtrlEpA CD4+ T cells (%) CtrlEpA CtrlEpA CtrlEpA FSC CD8 CD8 FSC FSC FSC BNumber of CD45.1+ T cells (×103 per mgĎ Number of CD4+ T cells (×104 per mgĎ DC (%)NK cells (%) NK cells (%) DC (%) Number of DC (×103 per mg) Number of NK cells (×105) Number of NK cells (×103 per mg) Number of DC (×105) FSC FSC FSC CD8 CtrlEpA CtrlEpA CtrlEpA CD8+ T cells (%) Number of CD8+ T cells (×104 per mgĎ nsns ns nsns ns 40 IL-6 (pg/ml)) […]

[3] = transferred CD45.1+ Th9, spleen, individual mice, n = 4
[4] = transferred cells, tumor, result in words

**Q.** How did the “GzmB+ PRF1+ gate number” value ([1]; CD45.1+ T cells in tumors, representative flow plot, Figure S4C) turn out when anteiso-C15 Leu7 surfactin [EpA] was run?
**A.** 34.1

**Q.** What about the “GzmB and Perforin expression” value [1, 3] of the same substance?
**A.** 68.8 and 68 and 57.8 and 55.7

**Q.** What about the IFN-γ expression [1, 3] of the same substance?
**A.** 3.05 and 4.37 and 6.82 and 2.23

**Q.** What about the TNF-α expression [1, 3] of the same substance?
**A.** 23.2 and 21 and 17.5 and 23.6

**Q.** What about the “IFN-γ, TNF-α, granzyme B and perforin” value ([1]; transferred cells, spleen, result in words) of the same substance?
**A.** markedly increased expression

**Q.** What about the IFN-γ expression [1, 4] of the same substance?
**A.** elevated

**Q.** What about the TNF-α levels [1, 4] of the same substance?
**A.** remained unchanged

**Q.** What about the “granzyme B+ perforin+ frequency” value [1, 4] of the same substance?
**A.** significantly higher

**Q.** What about the “Expression of GzmB+Perforin+ of transferred CD45.1⁺ OT-II Th9 cells in tumor” value (shortened to “Expression of GzmB+Perforin+ … in tumor”) ([1]; tumor, replicate 1) of the same substance?
**A.** 20.5

**Q.** And the “Expression of GzmB+Perforin+ … in tumor” value ([1]; tumor, replicate 2)?
**A.** 18.9

**Q.** And the “Expression of GzmB+Perforin+ … in tumor” value ([1]; tumor, replicate 3)?
**A.** 25.9

**Q.** What about the “Expression of GzmB+Perforin+ … in tumor” value ([1]; tumor, replicate 4) of the same substance?
**A.** 34.1

**Q.** And the “Expression of IFN-γ of transferred CD45.1⁺ OT-II Th9 cells in tumors” value (“Expression of IFN-γ … in tumors” for short) ([1]; replicate 1)?
**A.** 386

**Q.** What about the “Expression of IFN-γ … in tumors” value ([1]; replicate 2) of the same substance?
**A.** 392

**Q.** What about the “Expression of IFN-γ … in tumors” value ([1]; replicate 3) of the same substance?
**A.** 420

**Q.** What about the “Expression of IFN-γ … in tumors” value ([1]; replicate 4) of the same substance?
**A.** 261

**Q.** And the “Expression of TNF-α of transferred CD45.1⁺ OT-II Th9 cells in tumors” value (“Expression of TNF-α … in tumors” below) ([1]; replicate 1)?
**A.** 916

**Q.** And the “Expression of TNF-α … in tumors” value ([1]; replicate 2)?
**A.** 557

**Q.** What about the “Expression of TNF-α … in tumors” value ([1]; replicate 3) of the same substance?
**A.** 913

**Q.** What about the “Expression of TNF-α … in tumors” value ([1]; replicate 4) of the same substance?
**A.** 544

**Q.** And the “EpA pulldown, ZAP70” value [2]?
**A.** top candidate

**Q.** And the “Frequencies of endogenous CD4⁺ T cells in LN” value (shortened to “Frequencies … in LN”) (endogenous CD4+ T cells; LN, replicate 1)?
**A.** 32.6

**Q.** What about the “Frequencies … in LN” value (endogenous CD4+ T cells; LN, replicate 2) of the same substance?
**A.** 26.4

**Q.** What about the “Frequencies … in LN” value (endogenous CD4+ T cells; LN, replicate 3) of the same substance?
**A.** 36

**Q.** What about the “Frequencies … in LN” value (endogenous CD4+ T cells; LN, replicate 4) of the same substance?
**A.** 26

**Q.** What about the “Number of endogenous CD4⁺ T cells in LN” value (endogenous CD4+ T cells; LN, replicate 1) of the same substance?
**A.** 43261

**Q.** And the “Number of endogenous CD4⁺ T cells in LN” value (endogenous CD4+ T cells; LN, replicate 2)?
**A.** 37630

**Q.** And the “Number of endogenous CD4⁺ T cells in LN” value (endogenous CD4+ T cells; LN, replicate 3)?
**A.** 15416

**Q.** What about the “Number of endogenous CD4⁺ T cells in LN” value (endogenous CD4+ T cells; LN, replicate 4) of the same substance?
**A.** 15595.7

**Q.** And the CD4 gate number (endogenous CD4+ T cells; LN, Figure S1G)?
**A.** 36.0

**Q.** And the CD4 gate number (endogenous CD4+ T cells; Spleen, Figure S1F)?
**A.** 26.1

**Q.** And the CD4 gate number (endogenous CD4+ T cells; Tumor, Figure S1H)?
**A.** 15.2

**Q.** What about the “endogenous CD4+ T cell frequency and number” value (endogenous CD4+ T cells; spleens, lymph nodes, tumors, result in words) of the same substance?
**A.** minimal changes

**Q.** What about the “endogenous CD4 T cells (%)” value (endogenous CD4+ T cells; spleens) of the same substance?
**A.** 30.3% and 32.9% and 35.5% and 26.1%

**Q.** What about the “number of endogenous CD4 T cells” value (endogenous CD4+ T cells; spleens) of the same substance?
**A.** 1093264 and 1018812 and 1081910 and 535955

**Q.** And the “endogenous CD4 T cells (%)” value (endogenous CD4+ T cells; tumors)?
**A.** 15.2% and 16.6% and 24% and 21.6%

**Q.** And the “number of endogenous CD4 T cells” value (endogenous CD4+ T cells; tumors)?
**A.** 158 and 294 and 393 and 62
